Results reported in EPA's ToxRefDB 2.

How the values were obtained:
mouse [1] = conditions: Carcinogenicity; cd1; Oral; Feed; dose end: 104 week; group: systemic; systemic / pathology gross / liver / mass + systemic / pathology gross / liver / nodule(s) + systemic / pathology microscopic / liver / …
rat [2] = conditions: Subchronic oral toxicity in rodents, other, Feed, dose end: 90 day, group: systemic
rat [3] = conditions: Combined chronic toxicity/carcinogenicity, other, Oral, Feed, dose end: 104 week, group: systemic
rat [4] = conditions: Prenatal developmental toxicity study, other, Oral, Gavage/Intubation, dose end: 16 GD
dog [5] = conditions: Chronic toxicity, beagle, Oral, Feed, dose end: 52 week, group: systemic
rat [6] = conditions: Combined chronic toxicity/carcinogenicity, other, Oral, Feed, dose end: 25 month, group: systemic
dog [7] = conditions: Subchronic oral toxicity in nonrodent, beagle, Feed, dose end: 13 week, group: systemic
rat [8] = conditions: Multigenerational reproductive toxicity study, sprague dawley, Oral, Feed, dose end: 2 generation
rabbit = conditions: Prenatal developmental toxicity study, new zealand white, Oral, Gavage/Intubation, dose end: 28 GD
dog [9] = conditions: Chronic toxicity, beagle, Oral, Feed, dose end: 12 month, group: systemic
dog [10] = conditions: Subchronic oral toxicity in nonrodent, beagle, Feed, dose end: 90 day, group: systemic
rat [11] = conditions: Subchronic oral toxicity in rodents, wistar, Feed, dose end: 91 day, group: systemic, systemic / clinical chemistry / alanine aminotransferase (alt/sgpt) / alanine aminotransferase (alt/sgpt) + systemic / clinical chemistry / …
rat [12] = conditions: Combined chronic toxicity/carcinogenicity; wistar; Oral; Feed; dose end: 2 year; group: systemic; systemic / clinical chemistry / alanine aminotransferase (alt/sgpt) / alanine aminotransferase (alt/sgpt) + systemic / clinical chemistry / …
mouse [13] = conditions: Carcinogenicity, b6c3f1, Oral, Feed, dose end: 2 year, group: systemic
dog [14] = conditions: Subchronic oral toxicity in nonrodent, beagle, [Not Specified], dose end: 4 week, group: systemic, systemic / clinical chemistry / alanine aminotransferase (alt/sgpt) / alanine aminotransferase (alt/sgpt) + systemic / clinical chemistry / …
dog [15] = conditions: Chronic toxicity; beagle; Oral; Feed; dose end: 52 week; group: systemic; systemic / clinical chemistry / cholesterol / cholesterol + systemic / clinical chemistry / creatinine / creatinine + systemic / clinical …
rat [16] = conditions: Subchronic oral toxicity in rodents, wistar, Feed, dose end: 90 day, group: systemic
rat [17] = conditions: Prenatal developmental toxicity study, wistar, Oral, Gavage/Intubation, dose end: 15 GD
[18] = systemic / in life observation / body weight / body weight + systemic / in life observation / food consumption / food efficiency
[19] = systemic / in life observation / body weight / body weight + systemic / in life observation / food consumption / food efficiency + systemic…
[20] = group: developmental, developmental / developmental malformation / bone / misaligned + developmental / developmental malformation / kidney / absent renal papilla…
[21] = group: maternal, systemic / in life observation / body weight / body weight gain + systemic / in life observation / food consumption / food consumption + …
[22] = systemic / clinical chemistry / alkaline phosphatase (alp/alk) / alkaline phosphatase (alp/alk) + systemic / pathology microscopic / liver…
[23] = systemic / organ weight / liver / absolute
[24] = group: offspring, systemic / in life observation / body weight / offspring (pup) weight
[25] = group: parental, systemic / in life observation / body weight / body weight + systemic / in life observation / body weight / body weight gain
[26] = group: developmental, systemic / in life observation / body weight / fetal weight
[27] = group: maternal, reproductive / reproductive performance / aborted / aborted + systemic / in life observation / body weight / body weight gain + systemic / …
[28] = systemic / clinical chemistry / cholesterol / cholesterol + systemic / clinical chemistry / creatinine / creatinine + systemic / clinical …
[29] = systemic / pathology microscopic / pituitary gland / cyst
[30] = systemic / clinical chemistry / [other] / [other]
[31] = systemic / clinical chemistry / [other] / [other] + systemic / clinical chemistry / alanine aminotransferase (alt/sgpt) / alanine …
[32] = systemic / hematology / blood clotting / blood clotting - clotting time + systemic / organ weight / kidney / absolute + systemic / organ …
[33] = group: developmental, developmental / developmental malformation / bone / incomplete ossification + developmental / developmental malformation / bone / …

CN(C)c1nc(=O)n(C2CCCCC2)c(=O)n1C [Hexazinone]
LEL (mouse [1]): 366 mg/kg/day
LOAEL (mouse [1]): 366 mg/kg/day
NEL (mouse [1]): 28 mg/kg/day
NOAEL (mouse [1]): 28 mg/kg/day
LOAEL (rat [2]; [18]): 440 mg/kg/day
LEL (rat [2]; [19]): 440 mg/kg/day
NEL (rat [2]; [19]): 81 mg/kg/day
NOAEL (rat [2]; [19]): 81 mg/kg/day
LOAEL (rat [3]; [18]): 50 mg/kg/day
LEL (rat [3]; [19]): 50 mg/kg/day
NEL (rat [3]; [19]): 10 mg/kg/day
NOAEL (rat [3]; [19]): 10 mg/kg/day
LEL (rat [4]; [20]): 900 mg/kg/day
LOAEL (rat [4]; [20]): 900 mg/kg/day
NEL (rat [4]; [20]): 400 mg/kg/day
NOAEL (rat [4]; [20]): 400 mg/kg/day
LOAEL (rat [4]; group: maternal, systemic / in life observation / body weight / body weight gain + systemic / in life observation / food consumption / food consumption): 400 mg/kg/day
LEL (rat [4]; [21]): 400 mg/kg/day
NEL (rat [4]; [21]): 100 mg/kg/day
NOAEL (rat [4]; [21]): 100 mg/kg/day
LOAEL (dog [5]; [22]): 37.6 mg/kg/day
NEL (dog [5]; [22]): 4.97 mg/kg/day
NOAEL (dog [5]; [22]): 4.97 mg/kg/day
LEL (dog [5]; systemic / pathology microscopic / liver / lesion(s) (nos) + systemic / pathology microscopic / liver / pigmentation): 37.6 mg/kg/day
LOAEL (rat [6]; [18]): 53.4 mg/kg/day
LEL (rat [6]; [19]): 53.4 mg/kg/day
NEL (rat [6]; [19]): 10.2 mg/kg/day
NOAEL (rat [6]; [19]): 10.2 mg/kg/day
LOAEL (dog [7]; systemic / clinical chemistry / alkaline phosphatase (alp/alk) / alkaline phosphatase (alp/alk) + systemic / in life observation / body …): 122 mg/kg/day
LEL (dog [7]; [23]): 5.1 mg/kg/day
NEL (dog [7]; [23]): < 5.1 mg/kg/day
NOAEL (dog [7]; systemic / organ weight / liver / absolute + systemic / clinical chemistry / alkaline phosphatase (alp/alk) / alkaline phosphatase (alp/alk…): 25.9 mg/kg/day
LEL (rat [8]; [24]): 154 mg/kg/day
LOAEL (rat [8]; [24]): 180 mg/kg/day
NEL (rat [8]; [24]): 15.3 mg/kg/day
NOAEL (rat [8]; [24]): 17.7 mg/kg/day
LEL (rat [8]; [25]): 143 mg/kg/day
LOAEL (rat [8]; [25]): 143 mg/kg/day
NEL (rat [8]; [25]): 14.3 mg/kg/day
NOAEL (rat [8]; [25]): 14.3 mg/kg/day
LEL (rabbit; [26]): 125 mg/kg/day
LOAEL (rabbit; [26]): 125 mg/kg/day
NEL (rabbit; [26]): 50 mg/kg/day
NOAEL (rabbit; [26]): 50 mg/kg/day
LEL (rabbit; [27]): 125 mg/kg/day
LOAEL (rabbit; [27]): 125 mg/kg/day
NEL (rabbit; [27]): 50 mg/kg/day
NOAEL (rabbit; [27]): 50 mg/kg/day

Cc1cc(Cl)ccc1OCC(=O)O [MCPA]
LOAEL (dog [9]; [28]): 1.02 mg/kg/day
NOAEL (dog [9]; [28]): 0.21 mg/kg/day
LEL (dog [9]; [29]): 0.2 mg/kg/day
NEL (dog [9]; [29]): < 0.2 mg/kg/day
LEL (dog [10]; [30]): 3 mg/kg/day
LOAEL (dog [10]; [30]): 3 mg/kg/day
NEL (dog [10]; [31]): 1 mg/kg/day
NOAEL (dog [10]; [31]): 1 mg/kg/day
LEL (rat [11]): 177 mg/kg/day
LOAEL (rat [11]): 177 mg/kg/day
NEL (rat [11]): 34 mg/kg/day
NOAEL (rat [11]): 34 mg/kg/day
LEL (rat [12]): 5.7 mg/kg/day
LOAEL (rat [12]): 5.7 mg/kg/day
NEL (rat [12]): 1.4 mg/kg/day
NOAEL (rat [12]): 1.4 mg/kg/day
LEL (mouse [13]; systemic / in life observation / body weight / body weight): 15.7 mg/kg/day
NEL (mouse [13]; systemic / in life observation / body weight / body weight + systemic / pathology microscopic / kidney / casts protein + systemic / …): 3.2 mg/kg/day
LOAEL (mouse [13]; systemic / pathology microscopic / kidney / hyperplasia): 19.5 mg/kg/day
NOAEL (mouse [13]; systemic / pathology microscopic / kidney / hyperplasia + systemic / in life observation / body weight / body weight + systemic / organ …): 3.9 mg/kg/day
LEL (dog [14]): 8 mg/kg/day
LOAEL (dog [14]): 8 mg/kg/day
NEL (dog [14]): < 8 mg/kg/day
NOAEL (dog [14]): < 8 mg/kg/day
LEL (dog [15]): 1.02 mg/kg/day
LOAEL (dog [15]): 1.02 mg/kg/day
NEL (dog [15]): 0.21 mg/kg/day
NOAEL (dog [15]): 0.21 mg/kg/day
LOAEL (rat [16]; [32]): 32.6 mg/kg/day
NEL (rat [16]; [32]): 3.6 mg/kg/day
NOAEL (rat [16]; [32]): 10.9 mg/kg/day
LEL (rat [16]; systemic / organ weight / kidney / absolute): 10.9 mg/kg/day
LEL (rat [17]; [33]): 120 mg/kg/day
LOAEL (rat [17]; [33]): 120 mg/kg/day
NEL (rat [17]; [33]): 60 mg/kg/day
NOAEL (rat [17]; [33]): 60 mg/kg/day
LEL (rat [17]; [21]): 120 mg/kg/day
LOAEL (rat [17]; [21]): 120 mg/kg/day
NEL (rat [17]; [21]): 60 mg/kg/day
NOAEL (rat [17]; [21]): 60 mg/kg/day
